Measurements published in publication PMC11758220, “Identification of a Privileged Scaffold for Inhibition of Sterol Transport Proteins through the Synthesis and Ring Distortion of Diverse, Pseudo-Natural Products” (ACS Central Science, 2025).

The molecules below were run against T1, Aster-A (Homo sapiens, UniProt Q96CP6) (assay: In-cell isothermal shift assay in intact Jurkat cells). Conditions: 10 μM, 1 h, heated to 50 °C, Western blot.
T1 construct: endogenous in cells; host or cells: Jurkat cells
T1 sequence (Q96CP6 1-724): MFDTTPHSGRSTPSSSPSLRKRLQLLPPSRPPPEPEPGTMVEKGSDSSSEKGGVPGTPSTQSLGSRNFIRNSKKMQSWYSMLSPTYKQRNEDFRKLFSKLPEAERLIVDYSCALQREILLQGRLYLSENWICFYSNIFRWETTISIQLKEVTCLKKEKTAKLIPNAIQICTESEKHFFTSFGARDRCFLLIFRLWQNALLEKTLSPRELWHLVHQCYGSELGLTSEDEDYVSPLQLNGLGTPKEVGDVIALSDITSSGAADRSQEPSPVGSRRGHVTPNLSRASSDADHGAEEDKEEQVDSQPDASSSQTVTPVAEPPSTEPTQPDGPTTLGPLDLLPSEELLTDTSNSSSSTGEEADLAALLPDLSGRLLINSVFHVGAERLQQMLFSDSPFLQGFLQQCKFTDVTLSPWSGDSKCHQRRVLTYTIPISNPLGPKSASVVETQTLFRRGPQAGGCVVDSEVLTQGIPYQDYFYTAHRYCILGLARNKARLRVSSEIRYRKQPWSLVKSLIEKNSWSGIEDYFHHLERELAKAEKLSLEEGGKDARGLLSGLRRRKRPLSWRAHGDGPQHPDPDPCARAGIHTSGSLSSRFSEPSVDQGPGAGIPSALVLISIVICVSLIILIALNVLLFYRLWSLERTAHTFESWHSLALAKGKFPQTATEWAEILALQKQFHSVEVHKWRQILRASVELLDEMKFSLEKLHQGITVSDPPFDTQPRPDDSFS
Assay type: cell-based
Description: Jurkat cells were cultured in RPMI 1640 GlutaMAX supplemented with 10% fetal bovine serum and 1% penicillin-streptomycin at 37 °C, 5% CO2.
In-cell thermal stability assay
To a 15 mL falcon tube were added 3 × 10^5 Jurkat cells in media and centrifuged at 300 × g for three minutes. The supernatant was aspirated, and the cells were resuspended in 4 mL media containing 0.1% DMSO. The cells were gently vortexed to avoid pelleting at 30 minutes intervals. After 1 h incubation at 37 °C and 5% CO2, the cells were washed twice with PBS and collected in 0.9 mL PBS and divided into eight aliquots, each 100 µL in PCR tubes. The aliquots were individually heated at different temperatures (Doppio 2 × 48 well Thermal cycler, VWR). After the heat treatment, 10 µL of PBS containing 4.4 %v/v NP-40 was added to each sample and cells were lysed by freeze-thaw four times. The cell lysates were transferred to 1.5 mL Eppendorf tubes and cen trifuged (Micro Star 30, VWR) at 25000 × g, 4 °C for 25 minutes. The cleared supernatants were collected and further analy sed […]
In-cell isothermal shift assay
To eight 15 mL falcon tubes were added 3 × 10^5 Jurkat cells in 1 mL of media per tube and incubated with indicated test compounds for one hour at 37 °C and 5% CO2. The cells were gently vortexed to avoid pelleting at 30 minutes intervals. After one hour incubation at 37 °C and 5% CO2, the cells were centrifuged at 300 × g for three minutes, washed once with PBS and centrifuged again at 300 × g for three minutes. The cells were then resuspended in 50 µL of PBS in PCR tubes. The samples were then heated at the given temperature (Eppendorf Mastercycler ep Gradie nt S). After the heat treatment, 5 µL of PBS containing 4.4 %v/v NP-40 were added to each sample and cells lysed by freeze-thaw four times. Finally, the cell lysates were completely transferred to 1.5 mL Eppendorf tubes and centrifuged (Micro Star 30, VMR) at 25000 × g, 4 °C for 25 minutes. The cleared supernatants were collected and further analysed by western blotting.
Sodium dodecyl sulfate-polyacrylamide gel electrophoresis and western blotting Sodium dodecyl sulfate-polyacrylamide gel electrophoresis (SDS-PAGE) experiments were carried out using 4-15% precast polyacrylamide gels (Bio-Rad) and run at a constant voltage of 100 V for ten minutes followed by 120 V for one hour. Semidry transfer onto a 0.2 µm nitrocellulose membrane was performed using Bio-Rad Trans-Blot Turbo Transfer System at 1.3 A for seven minutes. For chemiluminescent detection, membranes were blocked in 5% milk in TBST (tris -buffered saline with Tween; 137 mM NaCl, 19 mM Tris-base, 2.7 mM KCl and 0.1 %v/v Tween-20, blocking buffer) for one houre at room temperature. […]
Western blot quantification was performed using LI-COR Image Studio Lite. […]

Compound	Stabilization of Aster-A toward thermal unfolding in intact Jurkat cells
CC12CCC3CC1CCC21C(=Nc2ccc(N4CCOCC4)cc21)O3 (single isomer, unassigned; (-)) [(−)-19a]	showed stabilization of Aster-A
CC(C)Oc1ccc(C(=O)Nc2nc3c(s2)CN(C(=O)OC(C)(C)C)CC3)cc1 [Autogramin-2, reference compound]	showed stabilization of Aster-A
C[C@]12CC[C@@H]3C[C@H]1CC[C@@]21C(=Nc2ccc(C(F)(F)F)cc21)O3 [Compound 15g]	showed stabilization of Aster-A
CC(C)(C)OC(=O)N1CCN(c2ccc3c(c2)C24CCC5CC(CCC52C)OC4=N3)CC1 (stereo not shown) [Compound 19e]	increased stabilization of Aster-A in intact cells
